Test results from patent US8129337B2, “Compositions comprising epigallocatechin gallate and protein hydrolysate” (DSM IP Assets B.V., priority 2005, dated 2012).

Tested on: db/db mice
Experiment: Pathologically changed islets of Langerhans in pancreata of db/db mice after 10 weeks of diet
Type: in vivo, mouse
Conditions: 10 weeks of feeding the diet
Description: Diets containing EGCG, or protein hydrolysate, or the combination of EGCG and protein hydrolysate, or placebo were administered to db/db mice (6 weeks old). The db/db mouse model of severe type 2 diabetes mellitus is well established and commonly used to assess the antidiabetic properties of nutritional or pharmaceutical interventions. Furthermore, the animals are characterized by a progressive loss of pancreatic function and pathological changes of pancreatic histology and morphology. The pancreatic damage occurring in db/db mice is the consequence of high blood glucose and lipid levels. After 10 weeks of administration of the respective diets pancreata of all mice were removed and assessed for pathologically changed islets of Langerhans.

O=C(O[C@@H]1Cc2c(O)cc(O)cc2O[C@@H]1c1cc(O)c(O)c(O)c1)c1cc(O)c(O)c(O)c1 [EGCG, epigallocatechin gallate]
Pathological islets (in % of total islets) (db/db mice (6 weeks old at start), n = 9 per group, means ± SEM): 36.5 ± 4.1 % of total islets | Effect on pathologically changed islets of Langerhans compared to placebo (in words) (db/db mice): less pathologically changed islets of Langerhans compared to placebo
